Experimental findings from EP1263420B1 (priority 2000, dated 2001) are described below.

One experiment relates to TGase II. The experiment can be described thus: TGase II activity in cultured MCF-7 cells. It is filed as cell-based, human. On the procedure:
MCF-7 cells were seeded at a density of 1.5 x 10^5 cells/ml medium (500ml DMEM + 56.2ml FBS + 5.6m1 AB/AM) in 6cm diameter dishes for 24 hours and treated with either DMSO, RA, or 13-cis RA at 10^-6 M and grown to confluence (about 72 hours). Cells were harvested and Transglutaminase II activity was measured as described below. Nebulizer solution, inhalation procedures, details of animal housing are described below.
Cultured cells were placed in 100 µl scraping buffer [A: 2800µl (400µl 0.5M Na-Phosphate, 500µl 0.01M EDTA, 100µl 1M DTT , 9ml PBS total 10ml) + B:700µl (10µl 20mg/ml PMSF 790µl PBS total 800µl)] for each dish. Cells were broken by a sonicator and kept in ice until used. TGase II assay was conducted as described below and previously {8217}.
Enzyme assay mixtures were prepared by adding 80µl of SUBSTRATE mixture (322.8µl H2O, 120µl 0.5M NaBorate, 60µl 0.01M EDTA, 60µl 0.1M CaCl2, 6µl 1M DTT, 240µl dimethyl casein, 30µl Triton X-100, 1.2µl [^3H]-Putrescine, 120µl Putrescine) to 20µl sample, 20µl scraping buffer for blank control , 20 µl (18µl scraping buffer + 2µl TGase II) for positive control. Samples were mixed in 15ml tubes, the tubes were shaken before putting them into a 28°C water bath for 30 minutes. Reactions were slowed down in an ice bath. 80µl of the incubation mixture was adsorbed onto paper disks. These were immediately dropped into cold 10% TCA (0.1% Putrescine) and washed with agitation for 7 minutes, followed by 2 additional washes with 5% TCA (0.05% putrescine) for 5~7 minutes, and once more with cold (-20°C) 95% ethanol for 5 minutes. Paper disks were dried and placed into 5ml Aquasol, and counted in a Liquid Scintillation Counter. Protein concentration determination was conducted by the Bradford method.

The test system of the next experiment is RARs. The experiment can be described thus: RAR induction in lung of A/J mice exposed to isotretinoin aerosols, all three RARs. It is filed as in vivo. Particulars: lungs exposed to mid levels of isotretinoin, urethane-treated mice. As for the experimental part:
Antibodies: Polyclonal antibodies to RARα, β and γ (Santa Cruz Biotechnology Inc., San Francisco, CA) were used with a BM Chemiluminescence Western Blotting Kit (Mouse/Rabbit) (Boehringer Mannheim Corporation, Indianapolis).
Experimental Design: Five lungs each from the urethane-treated vehicle, low dose, and mid dose animals were snap frozen in liquid nitrogen and stored at -70°C for determination of RARs α, β and γ by Western Blot Analysis. In addition, five lungs each from urethane-injected unexposed mice, and untreated control mice were designated for Westerns. The lungs were homogenized and the RARs were determined by standard Western Blotting (21, 22). Due to deaths early in the high dose experiment, no lungs were available for Western Blot Analysis for the high dose exposures, i.e. all tissue was used for lesion quantitation purposes.
Samples: Lung tissue was collected, frozen on dry ice and kept at -70°C until used. A 500 mg portion was diced in small pieces and homogenized in 300 µl of cold PBS using a hand held homogenizer for 2-3 min. Samples were centrifuged at 500 rpm for 5 min or until the supernatant was clear. The pellet was suspended in 400 µl of cold Buffer A [2 µl 0.5 M EDTA, 10 µl 1 mM EGTA, 50 µl 100 mM PMSF, 10 µl 1M DTT, 10 ml (10 mM HEPES pH 7.9 + 10 mM KCl)], and left at ice temperature for 15 min. […]

The test system of the next experiment is Lung Tumorigenesis. The experiment is described as follows: Lung tumorigenesis inhibition by inhaled isotretinoin in carcinogen-treated A/J mice. Particulars: for reductions of tumor multiplicity (non-significant): low dose; for reductions in multiplicity of tumor nodules: mid isotretinoin dose. It is filed as in vivo. The text has this:
The A/J mouse is a well-established animal model for preclinical chemoprevention studies. This strain has a hereditary predisposition for lung cancer, the so-called pulmonary adenoma susceptibility (Pas) genes. A strong candidate for one of these genes, Pas-1, is the K-ras protooncogene. Carcinogenesis in this model with NNK as the inciting agent has been studied so that the times required to develop hyperplastic areas, adenomas, and carcinomas are well known. In addition, the timing of molecular changes associated with carcinogenesis has been studied and are similar to those in humans. In both species, K-ras mutations are common early events.
Within 24 h of the last inhalation exposure, animals were euthanized by intraperitoneal injection of pentobarbital and their lungs were removed and fixed in Bouin's solution or flash frozen for RAR determination. The lungs were evaluated in a blinded fashion so that neither carcinogen nor isotretinoin dose levels were known to the evaluator, who visually counted hyperplastic areas and adenomas on the lung pleural surface as previously described The significance of the differences between the mean tumor incidence of the treatment and the control groups was determined using the Mann-Whitney Rank Sum test (Statmost TM, DataMost Corp., Sandy, Utah).

The structures appear in SMILES notation. Entries after “also recorded” stand apart in the source; their conditions may differ.

For the compound `CC1=C(/C=C/C(C)=C/C=C/C(C)=C\C(=O)O)C(C)(C)CCC1` [13-cis RA, 13-cis-Retinoic Acid], the fold induction at 1 µM with TGase II (Homo sapiens, MCF7, 72 h, read-out: stimulating TGase II activity) came out at 6.1. For the same compound, the “TGase II Activity” value in the experiment on TGase II (MCF-7 cells, 10^-6 M, 72 hours, DMSO control 0.183) was 1.118 +/- 0.016 picomoles/µg protein/30 minutes. The “induction of all three RARs” value with RARs is on record as “at least three fold”. For the same compound, the “reductions of tumor multiplicity (non-significant)” value was determined as 30% in the experiment on Lung Tumorigenesis (BaP treated mice, p<0.13) and 16% with Lung Tumorigenesis (NNK treated mice, p<0.30). Besides, the “effect on numbers of tumors” value with Lung Tumorigenesis (low isotretinoin dose) is “not affected by treatment at the 95% confidence level; also recorded: not significantly effective”. In addition, the “reductions in multiplicity of tumor nodules” value in the experiment with Lung Tumorigenesis (BaP-treated mice) worked out at 67%; with Lung Tumorigenesis (NNK-treated mice) it was 88%.
